Reference: ChEMBL document CHEMBL5380869, “Discovery of an Oral, Beyond-Rule-of-Five Mcl-1 Protein-Protein Interaction Modulator with the Potential of Treating Hematological Malignancies” (J Med Chem, 2023)
Converted amounts (≈) assume the structure as drawn.

Columns and labels:
[1] = Lipophilicity, CHI logD of compound at pH 7.4 by UPLC-TOF analysis; assay type: physicochemical; conditions: buffer
[2] = Thermodynamic (equilibrium) solubility of the compound measured after 3 days agitation in pH 2 buffer by LC-MS/MS analysis; assay type: physicochemical; conditions: time 3 day, read-out: Therm_solubility
[3] = Thermodynamic (equilibrium) solubility of the compound measured after 3 days agitation in pH 7 buffer by LC-MS/MS analysis; assay type: physicochemical; conditions: time 3 day, read-out: Therm_solubility
[4] = Cardiotoxicity risk in human iPSC-CM assessed as calcium transients at 1 uM by CTCM assay; assay type: toxicity, cell-based
[5] = Inhibition of terbium-labelled Mcl-1 (unknown origin)/Bim BH3 peptide (H3N-(C/Cy5Mal)-WIAQELRRIGDEFN-OH) (unknown origin) interaction assessed as displacement of Cy5-labeled Bim BH3 peptide by TR-HTRF assay
[6] = Intrinsic clearance in mouse liver microsomes measured upto 60 mins by LC-MS/MS analysis; assay type: ADME, Microsome; conditions: read-out: CLH
MOLP-8 = test: Induction apoptosis in human MOLP8 cells assessed as cell killing measured after 2 hrs by Caspase-Glo 3/7 Assay; assay type: functional, cell-based; conditions: MOLP-8, 2 h
[7] = Cardiotoxicity risk in human iPSC-CM assessed as calcium transients at 3 uM by CTCM assay; assay type: toxicity, cell-based
[8] = Intrinsic clearance in human liver microsomes measured upto 60 mins by LC-MS/MS analysis; assay type: ADME, Microsome; conditions: read-out: CLH
[9] = Cardiotoxicity risk in human iPSC-CM assessed as calcium transients at 10 uM by CTCM assay; assay type: toxicity, cell-based
[10] = Lipophilicity, CHI logD of compound at pH 2.6 by UPLC-TOF analysis; assay type: physicochemical; conditions: buffer
[11] = Lipophilicity, CHI logP of compound at pH 7.4 by UPLC-TOF analysis; assay type: physicochemical; conditions: buffer, read-out: logP

SMILES	chromatographic logD [1]	solubility thermodynamic at 72 h [2] [µM]	solubility thermodynamic at 72 h [3] [µM]	Ki [5] [nM]	microsomal CLint [6] [µL/min/mg]	microsomal CLint [8] [µL/min/mg]	chromatographic logD [10]	chromatographic logD [11]	Activity [4]	AC50 (MOLP-8) [nM]	Activity [7]	Activity [9]
CO[C@]1(CN2CCN3CCOC[C@@H]3C2)/C(F)=C/C[C@H](C)[C@@H](C)S(=O)(=O)NC(=O)c2ccc3c(c2)N(C[C@@H]2CCO[C@H]21)C[C@@]1(CCCc2cc(Cl)ccc21)CO3		44 (≈ 35.3 µg/mL)	< 0.1	0.088	21	11	2.8	3.5	Non-Toxic	163	Non-Toxic	Toxic
C[C@@H]1[C@@H](C)C/C=C(\F)[C@@](O)(CC(=O)N(C)C)[C@@H]2OCC[C@H]2CN2C[C@@]3(CCCc4cc(Cl)ccc43)COc3ccc(cc32)C(=O)NS1(=O)=O	3.6	< 0.1	< 0.1	0.18	< 7.7	< 7.7			Non-Toxic	436	Non-Toxic	
C/C1=C\C[C@H](C)[C@@H](C)S(=O)(=O)NC(=O)c2ccc3c(c2)N(C[C@@H]2CCO[C@H]2[C@H]1CO)C[C@@]1(CCCc2cc(Cl)ccc21)CO3	2.8	< 0.1	< 0.1	0.52	27	< 7.7				752		
C[C@@H]1[C@@H](C)C/C=C(\F)[C@H](OCCN2CCOCC2)[C@@H]2OCC[C@H]2CN2C[C@@]3(CCCc4cc(Cl)ccc43)COc3ccc(cc32)C(=O)NS1(=O)=O	2.7	539 (≈ 402 µg/mL)	1.2 (≈ 0.896 µg/mL)	0.19	34	62	2.5		Non-Toxic	314	Non-Toxic	Non-Toxic
CO[C@@H]1/C(F)=C/C[C@H](C)[C@@H](C)S(=O)(=O)NC(=O)c2ccc3c(c2)N(C[C@@H]2CCO[C@H]21)C[C@@]1(CCCc2cc(Cl)ccc21)CO3	3	< 0.5	11.2 (≈ 7.25 µg/mL)	1.13	21	< 7.7				1120		
C[C@@H]1[C@@H](C)C/C=C/[C@H](O)[C@@H]2OCC[C@H]2CN2C[C@@]3(CCCc4cc(Cl)ccc43)COc3ccc(cc32)C(=O)NS1(=O)=O	2.6	< 0.1	53 (≈ 32.6 µg/mL)	0.72	28	16				752		
COc1nn(C)cc1C(=O)N[S@]1(=O)=NC(=O)c2ccc3c(c2)N(C[C@@H]2CCO[C@H]2[C@@H](OC)/C(F)=C/C[C@H](C)C1)C[C@@]1(CCCc2cc(Cl)ccc21)CO3	3	< 0.1	202 (≈ 156 µg/mL)	0.25	9.3	16			Non-Toxic	2420	Non-Toxic	
C[C@@H]1[C@@H](C)C/C=C(\F)[C@@](O)(CC#N)[C@@H]2OCC[C@H]2CN2C[C@@]3(CCCc4cc(Cl)ccc43)COc3ccc(cc32)C(=O)NS1(=O)=O	3.1	< 0.5	0.3 (≈ 0.202 µg/mL)	2.36	< 7.7	< 7.7				> 5000		
CO[C@H]1/C(F)=C/C[C@H](C)[C@@H](C)S(=O)(=O)NC(=O)c2cnc3c(n2)N(C[C@@H]2CCO[C@H]21)C[C@@]1(CCCc2cc(Cl)ccc21)CO3	2.8	< 0.1	143 (≈ 92.8 µg/mL)	5.29	< 7.7	98				1220		
COCCN(CCOC)C[C@]1(OC)/C(F)=C/C[C@H](C)[C@@H](C)S(=O)(=O)NC(=O)c2ccc3c(c2)N(C[C@@H]2CCO[C@H]21)C[C@@]1(CCCc2cc(Cl)ccc21)CO3		518 (≈ 410 µg/mL)	1.1 (≈ 0.872 µg/mL)	0.096	28	< 7.7	3	3.9		412		
CO[C@@]1(CN2CCN3CCCC[C@@H]3C2)/C(F)=C/C[C@H](C)[C@@H](C)S(=O)(=O)NC(=O)c2ccc3c(c2)N(C[C@@H]2CCO[C@H]21)C[C@@]1(CCCc2cc(Cl)ccc21)CO3		40 (≈ 32 µg/mL)	102 (≈ 81.5 µg/mL)	0.15	< 7.7	< 7.7	2.5	3		1860		
CO[C@@]1(CN2CCN3CCOC[C@@H]3C2)/C(F)=C/C[C@H](C)[C@H](C)S(=O)(=O)NC(=O)c2ccc3c(c2)N(C[C@@H]2CCO[C@H]21)C[C@@]1(CCCc2cc(Cl)ccc21)CO3		516 (≈ 414 µg/mL)	< 0.1	0.13	22	< 7.7	3.4	3.3	Non-Toxic	992	Non-Toxic	Toxic

Further lines, with some results ahead:

chromatographic logD [1]	solubility thermodynamic at 72 h [2] [µM]	solubility thermodynamic at 72 h [3] [µM]	Ki [5] [nM]	microsomal CLint [6] [µL/min/mg]	microsomal CLint [8] [µL/min/mg]	chromatographic logD [10]	chromatographic logD [11]	SMILES	Activity [4]	AC50 (MOLP-8) [nM]	Activity [7]	Activity [9]
3	480 (≈ 444 µg/mL)	25 (≈ 23.1 µg/mL)	0.17	< 7.7	< 7.7			COc1nn(C)cc1C(=O)N[S@]1(=O)=NC(=O)c2ccc3c(c2)N(C[C@@H]2CCO[C@H]2[C@](CN2CCN4CCOC[C@@H]4C2)(OC)/C(F)=C/C[C@H](C)C1)C[C@@]1(CCCc2cc(Cl)ccc21)CO3	Non-Toxic	702	Non-Toxic	Non-Toxic
2.7	521 (≈ 379 µg/mL)	0.4 (≈ 0.291 µg/mL)	0.23	14	34	2.3		C[C@@H]1[C@@H](C)C/C=C/[C@H](OCCN2CCOCC2)[C@@H]2OCC[C@H]2CN2C[C@@]3(CCCc4cc(Cl)ccc43)COc3ccc(cc32)C(=O)NS1(=O)=O	Non-Toxic	616	Non-Toxic	Non-Toxic
2.9	0.2 (≈ 0.154 µg/mL)	188 (≈ 145 µg/mL)	5.1	< 7.7	< 7.7			COc1nn(C)cc1C(=O)N[S@@]1(=O)=NC(=O)c2ccc3c(c2)N(C[C@@H]2CCO[C@H]2[C@H](OC)/C(F)=C/C[C@H](C)C1)C[C@@]1(CCCc2cc(Cl)ccc21)CO3	Non-Toxic	> 5000	Non-Toxic	
3	544 (≈ 503 µg/mL)	518 (≈ 479 µg/mL)	0.048	< 7.7	< 7.7			COc1nn(C)cc1C(=O)N[S@]1(=O)=NC(=O)c2ccc3c(c2)N(C[C@@H]2CCO[C@H]2[C@@](CN2CCN4CCOC[C@@H]4C2)(OC)/C(F)=C/C[C@H](C)C1)C[C@@]1(CCCc2cc(Cl)ccc21)CO3	Non-Toxic	424	Non-Toxic	
2.9	0.27 (≈ 0.203 µg/mL)	172 (≈ 129 µg/mL)	0.023	< 7.7	< 7.7			COc1nn(C)cc1C(=O)N[S@@]1(=O)=NC(=O)c2ccc3c(c2)N(C[C@@H]2CCO[C@H]2[C@@H](OC)/C=C/C[C@H](C)C1)C[C@@]1(CCCc2cc(Cl)ccc21)CO3	Non-Toxic	76.1	Non-Toxic	Non-Toxic
3.7	< 0.1	< 0.1	0.67	18	< 7.7			COC[C@H]1/C(C)=C/C[C@H](C)[C@@H](C)S(=O)(=O)NC(=O)c2ccc3c(c2)N(C[C@@H]2CCO[C@H]21)C[C@@]1(CCCc2cc(Cl)ccc21)CO3		1820		
3.1	< 0.1	0.6 (≈ 0.462 µg/mL)	0.025	16	< 7.7			COc1nn(C)cc1C(=O)N[S@]1(=O)=NC(=O)c2ccc3c(c2)N(C[C@@H]2CCO[C@H]2[C@H](OC)/C(F)=C/C[C@H](C)C1)C[C@@]1(CCCc2cc(Cl)ccc21)CO3	Non-Toxic	486	Non-Toxic	Non-Toxic
	95 (≈ 74.6 µg/mL)	< 0.1	0.22	< 7.7	< 7.7	2.5	2.9	C[C@@H]1[C@@H](C)C/C=C(\F)[C@@](O)(CN2CCN3CCCC[C@@H]3C2)[C@@H]2OCC[C@H]2CN2C[C@@]3(CCCc4cc(Cl)ccc43)COc3ccc(cc32)C(=O)NS1(=O)=O		2660		
